In patent US8569344B2, “N-piperidinyl acetamide derivatives as calcium channel blockers” (Zalicus Pharmaceuticals Ltd., priority 2008, dated 2013) one finds IC50 data, which are given here for 29 molecules.

By IC50 is commonly meant the concentration at which inhibition is half-maximal.

Assay [1] concerns the target T1, human α1G T-type channels (Homo sapiens, UniProt O43497).
T1 construct: expressed in transfected cells; host or cells: HEK 293
Description: T-type calcium channel block, whole cell patch clamp in HEK cells (α1G). The class given is cell-based. Particulars: HEK cells, patch clamp, mainly non-inactivated protocol; values above 10 μM shown as 10 μM, below 0.30 μM shown as 0.30 μM; read-out: T-type Calcium Channel Block α1G IC50. (The patch-clamp technique gives a direct electrical read-out from membranes.)

Assay [2] addresses T2, human α1H T-type channels (Homo sapiens, UniProt O95180).
T2 construct: expressed in transfected cells; host or cells: HEK 293
Description: T-type calcium channel block, whole cell patch clamp in HEK cells (α1H). The conditions noted are these: HEK cells, patch clamp, mainly non-inactivated protocol; values above 10 μM shown as 10 μM; read-out: T-type Calcium Channel Block α1H IC50. It is filed as cell-based.

Each structure is given as a SMILES string. Where only a bound is given, the exact number is not on record here.

T1 sequence (O43497 whole entry): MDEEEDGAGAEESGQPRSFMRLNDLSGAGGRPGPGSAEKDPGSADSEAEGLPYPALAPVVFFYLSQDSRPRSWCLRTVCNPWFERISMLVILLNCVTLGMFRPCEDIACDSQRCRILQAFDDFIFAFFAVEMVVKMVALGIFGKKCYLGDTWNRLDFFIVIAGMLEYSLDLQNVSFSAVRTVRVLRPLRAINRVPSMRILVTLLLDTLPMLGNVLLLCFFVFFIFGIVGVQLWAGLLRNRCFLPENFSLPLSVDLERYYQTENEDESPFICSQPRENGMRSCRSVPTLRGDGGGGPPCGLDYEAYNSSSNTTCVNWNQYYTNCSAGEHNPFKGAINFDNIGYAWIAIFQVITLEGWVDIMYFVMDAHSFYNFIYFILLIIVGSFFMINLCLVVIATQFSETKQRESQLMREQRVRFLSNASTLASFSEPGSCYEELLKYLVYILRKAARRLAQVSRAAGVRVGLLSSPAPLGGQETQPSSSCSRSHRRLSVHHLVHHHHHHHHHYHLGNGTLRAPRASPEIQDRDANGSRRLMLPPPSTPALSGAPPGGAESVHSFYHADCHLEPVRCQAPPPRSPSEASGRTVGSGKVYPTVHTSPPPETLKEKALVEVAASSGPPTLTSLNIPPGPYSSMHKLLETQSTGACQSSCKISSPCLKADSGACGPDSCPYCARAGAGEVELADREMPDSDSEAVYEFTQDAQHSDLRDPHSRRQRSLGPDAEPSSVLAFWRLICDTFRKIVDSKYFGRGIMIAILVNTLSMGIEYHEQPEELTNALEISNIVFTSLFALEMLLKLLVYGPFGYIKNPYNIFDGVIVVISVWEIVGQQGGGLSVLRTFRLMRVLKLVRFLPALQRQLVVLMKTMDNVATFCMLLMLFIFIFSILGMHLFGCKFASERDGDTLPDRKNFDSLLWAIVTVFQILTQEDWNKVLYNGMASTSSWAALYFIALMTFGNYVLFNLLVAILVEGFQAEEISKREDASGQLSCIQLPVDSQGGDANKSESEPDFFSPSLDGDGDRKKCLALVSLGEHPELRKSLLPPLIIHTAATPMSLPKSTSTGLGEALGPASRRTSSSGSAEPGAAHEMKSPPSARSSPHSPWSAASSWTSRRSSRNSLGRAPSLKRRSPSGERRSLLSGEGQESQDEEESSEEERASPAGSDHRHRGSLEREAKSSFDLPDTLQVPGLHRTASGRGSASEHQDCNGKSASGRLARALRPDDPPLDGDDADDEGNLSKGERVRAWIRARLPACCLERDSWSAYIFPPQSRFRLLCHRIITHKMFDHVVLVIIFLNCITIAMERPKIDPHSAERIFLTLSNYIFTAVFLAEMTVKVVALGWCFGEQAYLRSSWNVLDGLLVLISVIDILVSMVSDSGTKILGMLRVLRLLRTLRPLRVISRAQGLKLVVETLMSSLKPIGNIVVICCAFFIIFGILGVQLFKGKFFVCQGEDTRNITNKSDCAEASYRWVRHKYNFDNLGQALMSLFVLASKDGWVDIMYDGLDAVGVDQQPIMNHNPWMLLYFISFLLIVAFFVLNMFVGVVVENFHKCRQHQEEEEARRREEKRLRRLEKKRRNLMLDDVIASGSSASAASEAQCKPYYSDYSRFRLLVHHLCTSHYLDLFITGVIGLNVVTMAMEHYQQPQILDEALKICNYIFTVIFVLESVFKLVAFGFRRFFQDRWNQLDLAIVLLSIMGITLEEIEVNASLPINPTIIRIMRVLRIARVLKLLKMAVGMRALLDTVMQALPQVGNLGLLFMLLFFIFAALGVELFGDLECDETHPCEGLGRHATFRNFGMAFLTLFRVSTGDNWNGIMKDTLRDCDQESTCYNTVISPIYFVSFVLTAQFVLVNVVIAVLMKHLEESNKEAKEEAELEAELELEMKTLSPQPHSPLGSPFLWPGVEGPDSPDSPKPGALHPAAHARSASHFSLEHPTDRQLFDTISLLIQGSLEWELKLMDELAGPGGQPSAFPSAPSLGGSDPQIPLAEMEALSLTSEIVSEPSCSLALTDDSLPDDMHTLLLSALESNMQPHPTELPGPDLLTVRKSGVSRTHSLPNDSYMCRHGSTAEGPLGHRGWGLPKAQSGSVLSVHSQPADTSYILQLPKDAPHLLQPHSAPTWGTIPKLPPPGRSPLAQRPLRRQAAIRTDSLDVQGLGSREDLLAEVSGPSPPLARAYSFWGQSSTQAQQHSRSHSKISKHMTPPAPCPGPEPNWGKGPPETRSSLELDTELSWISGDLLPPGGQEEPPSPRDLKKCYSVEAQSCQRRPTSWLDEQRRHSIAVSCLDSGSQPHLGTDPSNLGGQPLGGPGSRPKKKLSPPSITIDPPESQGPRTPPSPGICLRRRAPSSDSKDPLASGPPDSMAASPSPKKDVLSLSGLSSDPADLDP
T2 sequence (O95180 whole entry): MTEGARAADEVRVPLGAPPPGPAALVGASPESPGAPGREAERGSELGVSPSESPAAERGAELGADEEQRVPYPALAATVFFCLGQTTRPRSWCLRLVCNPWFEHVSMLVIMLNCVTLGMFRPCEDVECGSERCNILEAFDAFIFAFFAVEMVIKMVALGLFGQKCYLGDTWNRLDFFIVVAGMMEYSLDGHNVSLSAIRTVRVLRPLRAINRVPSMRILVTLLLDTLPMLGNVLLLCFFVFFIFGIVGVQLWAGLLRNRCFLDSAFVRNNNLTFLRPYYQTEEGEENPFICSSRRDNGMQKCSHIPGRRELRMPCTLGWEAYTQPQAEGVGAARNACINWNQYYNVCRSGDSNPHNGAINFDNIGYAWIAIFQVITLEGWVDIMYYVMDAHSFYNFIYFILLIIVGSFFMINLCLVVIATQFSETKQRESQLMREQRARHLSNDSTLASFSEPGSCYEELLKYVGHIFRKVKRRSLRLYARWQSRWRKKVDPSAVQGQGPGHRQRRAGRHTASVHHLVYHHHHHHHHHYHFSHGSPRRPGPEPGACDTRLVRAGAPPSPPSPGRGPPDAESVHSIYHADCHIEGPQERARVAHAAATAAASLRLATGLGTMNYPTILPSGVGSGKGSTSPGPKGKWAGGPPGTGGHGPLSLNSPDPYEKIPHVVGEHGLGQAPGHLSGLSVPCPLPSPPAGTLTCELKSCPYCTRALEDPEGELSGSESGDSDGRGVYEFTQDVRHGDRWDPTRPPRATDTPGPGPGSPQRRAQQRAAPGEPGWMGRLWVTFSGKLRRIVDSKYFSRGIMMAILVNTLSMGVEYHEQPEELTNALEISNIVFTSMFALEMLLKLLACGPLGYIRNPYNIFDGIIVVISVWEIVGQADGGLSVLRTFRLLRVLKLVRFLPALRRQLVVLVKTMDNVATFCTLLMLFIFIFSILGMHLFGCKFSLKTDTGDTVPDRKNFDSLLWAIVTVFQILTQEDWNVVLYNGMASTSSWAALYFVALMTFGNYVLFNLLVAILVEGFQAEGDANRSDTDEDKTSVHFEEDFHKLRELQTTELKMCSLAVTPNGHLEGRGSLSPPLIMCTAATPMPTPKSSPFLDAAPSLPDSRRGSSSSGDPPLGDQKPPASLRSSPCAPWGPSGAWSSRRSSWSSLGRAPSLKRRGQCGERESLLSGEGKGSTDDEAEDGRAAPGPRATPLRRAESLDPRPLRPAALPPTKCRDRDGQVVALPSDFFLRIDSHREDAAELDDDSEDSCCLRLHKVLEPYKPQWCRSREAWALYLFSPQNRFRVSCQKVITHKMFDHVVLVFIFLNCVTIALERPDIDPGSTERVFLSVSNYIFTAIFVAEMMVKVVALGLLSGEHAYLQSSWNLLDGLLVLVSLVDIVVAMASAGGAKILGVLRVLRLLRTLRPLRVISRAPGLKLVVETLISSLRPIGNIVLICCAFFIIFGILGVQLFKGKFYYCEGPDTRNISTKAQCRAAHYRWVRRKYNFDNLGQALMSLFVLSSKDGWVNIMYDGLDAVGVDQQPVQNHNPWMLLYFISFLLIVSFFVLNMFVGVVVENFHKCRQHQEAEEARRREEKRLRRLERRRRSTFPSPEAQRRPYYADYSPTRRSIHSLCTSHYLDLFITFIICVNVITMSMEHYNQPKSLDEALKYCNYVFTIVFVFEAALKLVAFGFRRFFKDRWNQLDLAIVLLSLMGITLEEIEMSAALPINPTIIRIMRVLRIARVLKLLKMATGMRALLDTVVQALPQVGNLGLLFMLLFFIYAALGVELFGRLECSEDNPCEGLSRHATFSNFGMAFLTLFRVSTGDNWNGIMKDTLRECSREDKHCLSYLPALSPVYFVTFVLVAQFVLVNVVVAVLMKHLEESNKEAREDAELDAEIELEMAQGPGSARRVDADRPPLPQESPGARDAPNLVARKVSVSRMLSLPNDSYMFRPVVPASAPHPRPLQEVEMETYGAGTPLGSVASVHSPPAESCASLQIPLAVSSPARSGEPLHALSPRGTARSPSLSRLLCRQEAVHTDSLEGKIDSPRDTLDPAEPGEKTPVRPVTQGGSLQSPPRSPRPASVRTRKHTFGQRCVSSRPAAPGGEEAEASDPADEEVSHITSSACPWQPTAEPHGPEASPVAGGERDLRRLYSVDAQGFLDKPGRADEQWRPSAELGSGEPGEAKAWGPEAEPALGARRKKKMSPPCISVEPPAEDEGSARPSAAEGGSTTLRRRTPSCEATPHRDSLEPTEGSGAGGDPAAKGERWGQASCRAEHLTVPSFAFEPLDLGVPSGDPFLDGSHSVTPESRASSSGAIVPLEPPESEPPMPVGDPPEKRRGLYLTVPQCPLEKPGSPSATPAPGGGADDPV

As for `Cc1cc(C)cc(C(=O)NCC2CCN(CC(=O)NC(C)(C)C(F)(F)F)CC2)c1` [Compound 454, 3,5-dimethyl-N-((1-(2-oxo-2-(1,1,1-trifluoro-2-methylpropan-2-ylamino)ethyl)piperidin-4-yl)methyl)benzamide], the IC50 was less than 300 nM in assay [1] and 40 nM in assay [2].

Take `CC(C)(F)C(=O)NCCN1CCC(CNC(=O)c2cc(F)cc(C(F)(F)F)c2)CC1` [Compound 336, 3-fluoro-N-((1-(2-(2-fluoro-2-methylpropanamido)ethyl)piperidin-4-yl)methyl)-5-(trifluoromethyl)benzamide]: the IC50 in assay [1] amounted to 1750 nM; in assay [2], 1160 nM.

For the molecule `O=C(NCC1CCN(CCNS(=O)(=O)C2CC2)CC1)c1cc(F)cc(C(F)(F)F)c1` [Compound 230, N-((1-(2-(cyclopropanesulfonamido)ethyl)piperidin-4-yl)methyl)-3-fluoro-5-(trifluoromethyl)benzamide], the IC50 in assay [1] is 4760 nM; in assay [2], 850 nM.

`CCCNC(=O)CN1CCC(CNC(=O)c2cc(F)cc(C(F)(F)F)c2)CC1` [Compound 351, 3-fluoro-N-((1-(2-oxo-2-(propylamino)ethyl)piperidin-4-yl)methyl)-5-(trifluoromethyl)benzamide]: the IC50 in assay [1] came to 1720 nM; in assay [2] it was 1300 nM.

For `CN(CCN1CCC(CNC(=O)c2cc(F)cc(C(F)(F)F)c2)CC1)C(=O)C1CCCC1` [Compound 516, 3-fluoro-N-((1-(2-(N-methylcyclopentanecarboxamido)ethyl)piperidin-4-yl)methyl)-5-(trifluoromethyl)benzamide], the values for the IC50 in assay [1] and in assay [2] were 460 nM and 220 nM, respectively.

Consider `O=C(NCC1CCN(CCN2C(=O)NC3(CCCCC3)C2=O)CC1)c1cc(F)cc(C(F)(F)F)c1` [Compound 568, N-((1-(2-(2,4-dioxo-1,3-diazaspiro[4.5]decan-3-yl)ethyl)piperidin-4-yl)methyl)-3-fluoro-5-(trifluoromethyl)benzamide], for which the IC50 in assay [1] was determined as 1360 nM; in assay [2], 890 nM.

For the molecule `CC(C)(C)OC(=O)NCCN1CCC(CNC(=O)c2cccc(C(F)(F)F)c2)CC1` [Compound 39, tert-butyl 2-(4-((3-(trifluoromethyl)benzamido)methyl)piperidin-1-yl)ethylcarbamate], the half-inhibitory concentration (IC50) in assay [1] was found to be 1310 nM; in assay [2], 1170 nM.

In the case of `Cc1cc(F)cc(C(=O)NCC2CCN(CCNC(=O)C3(C(F)(F)F)CC3)CC2)c1` [Compound 498, 3-fluoro-5-methyl-N-((1-(2-(1-(trifluoromethyl)cyclopropanecarbox-amido)ethyl)piperidin-4-yl)methyl) benzamide], the IC50 was 770 nM in assay [1] and 220 nM in assay [2].

On to `CCOC(=O)NC1(CN2CCC(CNC(=O)c3cc(C(F)(F)F)cc(C(F)(F)F)c3)CC2)CCCC1` [Compound 17, ethyl 1-((4-((3,5-bis(trifluoromethyl)benzamido)methyl)piperidin-1-yl)methyl)cyclopentylcarbamate], for which the results for the IC50 in assay [1] and in assay [2] were less than 300 nM and 120 nM, respectively.

As to `CC(C)(C)OC(=O)NCCN1CCC(CNC(=O)c2cc(Cl)cc(C(F)(F)F)c2)CC1` [Compound 40, tert-butyl 2-(4-((3-chloro-5-(trifluoromethyl)benzamido)methyl)piperidin-1-yl)ethylcarbamate], the IC50 in assay [1] was less than 300 nM; in assay [2], 160 nM.

On to `CCOC1CCN(C(=O)CN2CCC(CNC(=O)c3cc(C(F)(F)F)cc(C(F)(F)F)c3)CC2)CC1` [Compound 305, N-((1-(2-(4-ethoxypiperidin-1-yl)-2-oxoethyl)piperidin-4-yl)methyl)-3,5-bis(trifluoromethyl)benzamide], for which the IC50 was 7420 nM in assay [1] and 4450 nM in assay [2].

For `CN(CCN1CCC(CNC(=O)c2cc(F)cc(C(F)(F)F)c2)CC1)C(=O)C1(C)CC1` [Compound 518, N-((1-(2-(N,1-dimethylcyclopropanecarboxamido)ethyl)piperidin-4-yl)methyl)-3-fluoro-5-(trifluoromethyl)benzamide], the figures for the IC50 in assay [1] and in assay [2] were 1310 nM and 810 nM, respectively.

As for `O=C(CN1CCC(CNC(=O)c2cccc(Cl)c2)CC1)NC1CCCC1` [Compound 534, 3-chloro-N-((1-(2-(cyclopentylamino)-2-oxoethyl)piperidin-4-yl)methyl) benzamide], the IC50 in assay [1] was found to be 380 nM; in assay [2] it was 420 nM.

On to `CC(C)NC(=O)CN1CCC(CNC(=O)c2cc(F)cc(Cl)c2)CC1` [Compound 443, 3-chloro-5-fluoro-N-((1-(2-(isopropyl-amino)-2-oxoethyl)piperidin-4-yl)methyl)benzamide], for which the IC50 in assay [1] amounted to 3310 nM; in assay [2] it was 2810 nM.

For `O=C(NCC1CCN(CCNS(=O)(=O)C2CCCC2)CC1)c1cc(F)cc(C(F)(F)F)c1` [Compound 307, N-((1-(2-(cyclopentanesulfonamido)ethyl)piperidin-4-yl)methyl)-3-fluoro-5-(trifluoromethyl)benzamide], the results for the IC50 in assay [1] and in assay [2] were less than 300 nM and 340 nM, respectively.

For the molecule `CC(C)(C)NCC(=O)N1CCC(CNC(=O)c2cc(C(F)(F)F)cc(C(F)(F)F)c2)CC1` [Compound 239, N-((1-(2-(tert-butylamino)acetyl)piperidin-4-yl)methyl)-3,5-bis(trifluoromethyl)benzamide], the values for the IC50 in assay [1] and in assay [2] were less than 300 nM and 1730 nM, respectively.

`Cc1cc(C)cc(C(=O)NCC2CCN(CCNC(=O)OC(C)(C)C)CC2)c1` [Compound 42, tert-butyl 2-(4-((3,5-dimethylbenzamido)methyl)piperidin-1-yl)ethylcarbamate]: the IC50 in assay [1] came to 1640 nM; in assay [2], 760 nM.

For `CC(C)(F)CNC(=O)CN1CCC(CNC(=O)c2cc(F)cc(C(F)(F)F)c2)CC1` [Compound 556, 3-fluoro-N-((1-(2-(2-fluoro-2-methylpropylamino)-2-oxoethyl)piperidin-4-yl)methyl)-5-(trifluoromethyl)benzamide], the values for the IC50 in assay [1] and in assay [2] were 1370 nM and 1770 nM, respectively.

Turning to `CCS(=O)(=O)NC1(CN2CCC(CNC(=O)c3cc(C(F)(F)F)cc(C(F)(F)F)c3)CC2)CCCC1` [Compound 3, N-((1-((1-(ethylsulfonamido)cyclopentyl)methyl)piperidin-4-yl)methyl)-3,5-bis(trifluoromethyl)benzamide], the results for the IC50 in assay [1] and in assay [2] were less than 300 nM and 550 nM, respectively.

For the molecule `O=C(/C=C/c1cc(Cl)cc(Cl)c1)NCC1CCN(CCNC(=O)CCC(F)(F)F)CC1` [Compound 316, (E)-N-(2-(4-((3-(3,5-dichlorophenyl)acrylamido)methyl)piperidin-4-1-yl)ethyl)-4,4,4-trifluorobutanamide], the IC50 in assay [1] is greater than 10000 nM; in assay [2], 5830 nM.

For `O=C(NCC1CCN(CCNC(=O)C2(C(F)(F)F)CCC2)CC1)c1cccc(Cl)c1` [Compound 512, 3-chloro-N-((1-(2-(1-(trifluoromethyl)cyclobutanecarboxamido)ethyl)piperidin-4-yl)methyl)benzamide], the IC50 is less than 300 nM in assay [1] and 190 nM in assay [2].

As for `O=C(NCC1CCN(CC(=O)N2CCC[C@@H]2C(F)(F)F)CC1)c1cc(F)cc(Cl)c1` [Compound 504, (R)-3-chloro-5-fluoro-N-((1-(2-oxo-2-(2-(trifluoromethyl)pyrrolidin-1-yl)ethyl)piperidin-4-yl)methyl) benzamide], the IC50 in assay [1] and in assay [2] was 420 nM in each case.

For the molecule `O=C(CCC(F)(F)F)NCCN1CCC(CNC(=O)c2cccc(OC(F)(F)F)c2)CC1` [Compound 311, N-((1-(2-(4,4,4-trifluorobutanamido)ethyl)piperidin-4-yl)methyl)-3-(trifluoromethoxy) benzamide], the IC50 in assay [1] was found to be 2650 nM; in assay [2], 330 nM.

Consider `CC1(NC(=O)CN2CCC(CNC(=O)c3ccc(F)cc3)CC2)CCC1` [Compound 529, 4-fluoro-N-((1-(2-(1-methylcyclobutyl-amino)-2-oxoethyl)piperidin-4-yl)methyl)benzamide], for which the IC50 in assay [1] was 5440 nM; in assay [2] it was 2510 nM.

For the molecule `CC(C)(C)NC(=O)CN1CCC(CNC(=O)c2cc(C(F)(F)F)ccn2)CC1` [Compound 372, N-((1-(2-(tert-butylamino)-2-oxoethyl)piperidin-4-yl)methyl)-4-(trifluoromethyl)picolinamide], the IC50 in assay [1] and in assay [2] was greater than 10000 nM each time.

Consider `CCOc1cc(OCC)cc(C(=O)NCC2CCN(CC(=O)NC(C)(C)C)CC2)c1` [Compound 377, N-((1-(2-(tert-butylamino)-2-oxoethyl)piperidin-4-yl)methyl)-3,5-diethoxybenzamide], for which the IC50 is less than 300 nM in assay [1] and 450 nM in assay [2].

As for `COc1cc(C(=O)NCC2CCN(CCNS(=O)(=O)C3CC3)CC2)cc(C(F)(F)F)c1` [Compound 235, N-((1-(2-(cyclopropanesulfonamido)ethyl)piperidin-4-yl)methyl)-3-methoxy-5-(trifluoromethyl)benzamide], the IC50 in assay [1] is less than 300 nM; in assay [2], 440 nM.

Take `CC(C)(C)N/C(CN1CCC(CNC(=O)c2cc(C(F)(F)F)cc(C(F)(F)F)c2)CC1)=N\C#N` [Compound 503, (Z)-N-((1-(2-(tert-buylamino)-2-(cyanoimino)ethyl)piperidin-4-yl)methyl)-3,5-bis(trifluoromethyl) benzamide]: the IC50 worked out at 1550 nM in assay [1] and 7200 nM in assay [2].

Regarding `COc1cc(C(=O)NCC2CCN(CC(=O)NC(C)(C)C)CC2)cc(C(F)(F)F)c1` [Compound 379, N-((1-(2-(tert-buylamino)-2-oxoethyl)piperidin-4-yl)methyl)-3-methoxy-5-(trifluoromethyl)benzamide], the IC50 in assay [1] is less than 300 nM; in assay [2] it was 130 nM.
